Data as given in patent US6534496B1, “Thermogenic composition and benzazepine thermogenics” (Takeda Chemical Industries, Inc., priority 1997, dated 2003).
Structures can show the parent of a compound that is named as a salt. Marks after values point to notes of the source that are not given here.

How the values were obtained:
[1] = Assay of thermogenic activity in mice (Test Example 4); type: in vivo, male C57BL db/db mice; settings: 1 mg/kg orally for 6 days; 24 hours-average regional temperature after the final administration; N=6
Protocol: The telethermometer (VltaView™, Mini-Mitter Co., Inc., USA) was inplanted subcutaneously border on the scapulae of male C57BL db/db mice (CLEA Japan Inc., N=6) anesthetized with ether. After 7 days acclimatization, 1 mg/kg of the compound which was obtained in Example 23, was orally administrated for 6 days. The 24 hours-average regional temperature after the final administration was measured. The control was administrated 0.5% methylcellulose solution.

[2] = Assay of reducing activity against weight gain of mice; type: in vivo, Male C57BL db/db mice
Protocol: Male C57BL db/db mice (CLEA Japan Inc., 10 weeks old) was pretreated for 7 days, with solid feed (CLEA Japan Inc., CE-2). After acclimatization, 0.3 mg/kg or 1.0 mg/kg of the compound which, was obtained in Example 23, was oraly administrated for 6 weeks. Body weight was measured after the final administration. After the measurement, total blood was successively drawn from the orbital vain, and the visceral fat was collected and its weight was measured. Statistics analysis was carried out with Dunnett anlalysis.

[3] = tested on: murine preadipocyte line (3T3-L1); test: Assay of intraadipocyte cAMP increasing activity using murine preadipocyte line (3T3-L1) (Test Example 3, compounds of the Examples); type: cell-based; settings: Table 14
Protocol: The intraadipocyte cAMP concentration-increasing activity of the above compound (I) was determined in an assay system using murine preadipocyte line 3T3-L1. Thus, 3T3-L1 preadipocytes were seeded onto a 96-well microtiter plate (10,000 cells/well) and cultured for 5-6 days until a confluent growth was formed. Thereafter, the adipocytes were further cultured for 72 hours. The test compound (I) (10^−5M, 10^−6M, 10^−7M, 10^−8M, and 10^−9M) was then added and the plate was allowed to sit at 37° C. for 40 minutes. The cells were washed with 3 portions of phosphate buffer at 4° C. (100 μl/well). Then, 0.1 N hydrochloric acid was added and the cells were denatured at 95° C. for 10 minutes. From each well, 25 μl was aspirated and dissolved in 75 μl of the assay a buffer included in Cyclic AMP Enzyme Immunoassay Kit (Kayman Chemical Company, USA). Using a 50 μl portion as the sample, cAMP was assayed using the above-mentioned Kit. Thus, using a 96-well microtiter plate precoated with anti-rabbit IgG mouse antibody, the above sample (50 μl) as well as the Cyclic AMP Tracer (50 μl) and Cyclic AMP Rabbit Antibody (50 μl) from the Kit were added and the plate was incubated at room temperature for 18 hours. After asperation, the plate was washed with 4 portions of the wash buffer (400 μl/well). Then, 200 μl of the color reagent included in the Kit was added to each well and the plate was incubated at room temperature with'shaking for 60 minutes. After completion of the reaction, the absorbance was measured at 405 nm to quantitate the cAMP.
Each value is the mean result of 4 experiments. The test for statistical significance against the CAMP concentration of the control experiment (the test compound not added) was carried out by the known ANOVA. (* p<05 vs. control)
Using the compounds obtained in Examples 1 through 130, as well as their salts, their intraadipocyte cAMP increasing activities were assayed by the same procedure as in Test Example 1.

[4] = second line of Example 23, dose printed 0.3 mg/kg, orally for 6 weeks
[5] = concentration of test compound 10^−5M
[6] = concentration of test compound 10^−6M
[7] = concentration of test compound 10^−7M
[8] = concentration of test compound 10^−8M
[9] = concentration of test compound 10^−9M

Row | SMILES | cAMP [3, 5] | cAMP [3, 6] | cAMP [3, 7] | cAMP [3, 8] [pmol/mL] | cAMP [3, 9] [pmol/mL] | further results
1 | CC(=O)N1CCC(CCC(=O)c2ccc3c(c2)CCN(Cc2ccccc2)CC3)CC1.Cl [Example 23, 3-(1-Acetyl-4-piperidinyl)-1-[3-(phenylmethyl)-2,3,4,5-tetrahydro-1H-3-benzazepin-7-yl]-1-propanone Hydrochloride] | – | – | – | – | – | Regional temperature [1]: 35.54 °C; Amount of visceral fat (average ± S.E.) ([2]; 0.3 mg/kg orally for 6 weeks): 5.47 ± 0.36 g; Body weight, ending date of administration (average ± S.E.) ([2]; 0.3 mg/kg orally for 6 weeks): 40.87 ± 1.57 g; Body weight, starting date of administration (average ± S.E.) ([2]; 0.3 mg/kg orally for 6 weeks): 40.21 ± 0.48 g; Amount of visceral fat (average ± S.E.) ([2]; 1.0 mg/kg orally for 6 weeks): 5.13 ± 0.39 g; Body weight, ending date of administration (average ± S.E.) [2, 4]: 39.75 ± 1.55 g; Body weight, starting date of administration (average ± S.E.) [2, 4]: 40.40 ± 0.69 g
2 | Cc1ccccc1CN1CCc2ccc(C(=O)CCCC3CCN(Cc4ccccc4C)CC3)cc2CC1 [Example 127, 4-[1-[(2-Methylphenyl)methyl]-4-piperidinyl]-1-[3-[(2-methylphenyl)methyl]-2,3,4,5-tetrahydro-1H-3-benzazepin-7-yl]-1-butanone Dihydrochloride] | 554.0* pmol/ml | 100.0* pmol/ml | 10.1* pmol/ml | 4.7 | 3.6 | –
3 | Cc1ccccc1CN1CCc2ccc(C(=O)CCCC3CCN(Cc4cccc(Cl)c4)CC3)cc2CC1 [Example 130] | 430.6* pmol/ml | 23.5* pmol/ml | 5.7* pmol/ml | 4.5 | 3.4 | –
4 | N#Cc1cccc(CN2CCc3ccc(C(=O)CCCC4CCN(Cc5ccccc5Cl)CC4)cc3CC2)c1 [Example 267, 4-[1-[(2-Chlorophenyl)methyl]-4-piperidinyl]-1-[3-[(3-cyanophenyl)methyl]-2,3,4,5-tetrahydro-1H-3-benzazepin-7-yl]-1-butanone] | – | – | – | – | – | melting point: 121 to 122 °C
